According to a melting point compilation (Tetko et al.; mined from patent text by program, amines drawn as free bases though some values may be those of a salt):

Row | melting point [°C] | Structure (SMILES)
1 | 108 to 110 | Cc1cc(C(=O)N(C(C)C)C(C)C)ccc1[N+](=O)[O-]
2 | 238 to 240 | Nc1nc(N)c2ncn(COCCOC=O)c2n1
3 | 169 to 170 | CCCCCCN(Cc1ccccn1)C(Nc1cc(C(C)(C)C)c(O)c(C(C)(C)C)c1)=C1C(=O)OC(C)(C)OC1=O
4 | 81.5 to 82.5 | COC(C)(C)C(=O)C(Oc1ccc(I)cc1)n1cncn1 (stereo not given)
5 | 220 to 221 | CCOC(=O)c1cnc(Nc2ccccc2OCC)[nH]c1=O
6 | 135 to 136 | O=C(CSc1ccnc2ccccc12)c1ccc(OCc2ccccc2)cc1
7 | 183 to 186 | COCCc1nc2c(N)nc3ccccc3c2n1CCCNC(=O)c1ccccc1
8 | > 300 | N#Cc1ccc(O)c(NC(=O)C(=O)O)c1
9 | 78 to 79 | COc1cc2c(cc1OCc1ccccc1)CCN(Cc1cccc(O)c1)C2
10 | 197 to 199 | Cc1ccc(-c2nnc(N3CCC(=O)CC3)nc2-c2ccc(C)cc2)cc1
11 | 250 to 251 | Cc1nnc(-c2ccc3occ(-c4ccc(C(N)=O)cc4)c3c2)o1
12 | 48 to 51 | CCC(C(=O)N(C)C)n1ccc(-c2ccccc2C)n1 (stereo not given)
13 | 103 to 105 | N=C(OCc1ccc(Cl)cc1)N1Cc2ccccc2-c2ccccc2C1
14 | 181 to 184 | C[C@H](OC(=O)NCCC(F)(F)C(F)(F)F)C(=O)N[C@@H]1C(=O)N(CCO)c2ccccc2-c2ccccc21
15 | 85 to 86 | NS(=O)(=O)c1ncccc1SCCCF
16 | 83 | Cn1c(C=O)cc2ccccc21
17 | 183 to 185 | N=C(NO)C1=Cc2cc(O)c(O)cc2CC1
18 | 124 to 126 | C[C@H](O)[C@H](CO)N(Cc1ccc(C#N)cc1)S(=O)(=O)c1ccc(Cl)cc1
19 | 262 to 264 | O=C1Nc2cc(F)ccc2N2CCN(CCCCc3ccncc3)CC12 (stereo not given)
20 | 199 | OC1CSC(Oc2ccc(-c3ccc(F)nc3)nc2Cl)C(O)C1O (stereo not given)
21 | 183 to 185 | N#Cc1ccc(N2c3cc(Cl)ccc3C(=O)OC23CCNCC3)cc1
22 | 180 to 182 | OCc1cccnc1Nc1ccccc1
23 | 217 to 219 | CCc1c(C(=O)NN2CCCCC2)nc(-c2ccccc2Cl)n1-c1ccc(Cl)cn1
24 | 96 to 98 | C/C(=N\OCCBr)[C@H]1CC[C@H]2[C@@H]3CCC4=CC(=O)CC[C@]4(C)[C@H]3CC[C@]12C

Row | melting point [°C] | Structure (SMILES)
25 | 170 | CN(CCCN1CCN(c2ccccc2C2CC2)CC1)c1nccc(C(N)=O)n1
26 | 190 to 192 | CC(=O)SCC(=O)Nc1ccc(C(=O)NCCO)cc1
27 | 254 to 257 | COCCn1nc2c(N)nc3ncccc3c2c1CC(C)(C)C(N)=O
28 | 208 to 210 | COc1ccc(N2CCCn3c2nc2c(Cl)ccc(C(O)(C4CC4)C4CC4)c23)c(C)n1
29 | 137 | COc1cc(-c2ccc(C(C)(C)C)s2)cc2oc(=O)c(C)c(C)c12
30 | 118 to 122 | O=C1C(=O)c2ccccc2C2=C1SCC1(CCN(Cc3ccccc3F)CC1)O2
31 | 104 to 106 | O=C(CN1CCN(c2ccccc2)CC1)c1ccccc1
32 | 160 to 161 | CN(c1cc(OCC(N)=O)cc2cc(C3=NCC(CN4CCS(=O)CC4)S3)[nH]c12)S(=O)(=O)c1ccccn1 (stereo not given)
33 | 191 to 193 | CCC(=O)N1N=C(c2ccc([N+](=O)[O-])c(C)c2)c2cc3c(cc2CC1(C)C#N)OCO3 (stereo not given)
34 | 79 to 81 | O=[N+]([O-])c1ccc(CO)c(CCO)c1
35 | 60 | ClCCOc1cccc2[nH]ccc12
36 | 190 to 194 | Cn1c(C(F)F)nn(-c2cc(OCC(N)=O)c(Cl)cc2Cl)c1=O
37 | 122 to 124 | CCOC(=O)C1=C(C)NC(C(OC)OC)=C(C(=O)OC)C1c1ccccc1[N+](=O)[O-] (stereo not given)
38 | 141 to 143 | Nc1ccc(F)c(-c2cncnc2)c1F
39 | 165 | Cc1ccc(S(=O)(=O)N2Cc3sccc3-n3cccc3C2)cc1
40 | 102 to 103 | Cc1oc(C2CCCCC2)nc1CC(=O)O
41 | 194 to 196 | COC(=O)c1cccc2[nH]c3cc4c(c(OC)c3c12)CCCC4
42 | 114 to 115 | C[Si](C)(C)CCSCCCNC(=O)n1cc(F)c(=O)[nH]c1=O
43 | 235 | CCCC(=O)Nc1n[nH]c2cc(Cl)c(-c3ccccc3)cc12
44 | 265 to 266 | O=C(O)c1ccc2cccc(Br)c2c1
45 | 99 to 100 | COC(=O)c1nc(Cl)sc1-c1cccc(F)c1
46 | 177 to 179 | CCN(CC)C(=O)c1cnn(C)c1C(=O)Nc1ccn2nc(-c3ccccc3)nc2c1
47 | 120 to 122 | CCOC(=O)NCC(CC)C(NC(=O)OCC)NC(=O)OCC (stereo not given)
48 | 79 to 80 | Nc1ccc(Cc2ccccc2)cn1

Row | melting point [°C] | Structure (SMILES)
49 | 136 to 138 | Clc1nc(-c2ccccc2)nc(-c2ccccc2)n1
50 | 212 | CC(C)C(=O)N[C@H]1CC[C@H](CCN2CCC(c3cccc4c3CCO4)CC2)CC1
51 | 108 to 111 | CC(C(=O)N(C)C)n1cc(Cl)c(-c2ccccc2Cl)n1 (stereo not given)
52 | 156 to 158 | N#CCC(=O)Nc1cc(Cl)c(Cl)cc1[N+](=O)[O-]
53 | 114 to 116 | c1ccc2c(c1)CNc1ccccc1N2
54 | 220 to 221 | CNc1nc(-c2ccc(Cl)c(Cl)c2)cs1
55 | 49 | CCOC(=O)c1c(-c2ccc(F)cc2)c(-c2ccc(F)cc2)cn1C(C)C
56 | 198 to 200 | N#Cc1cc(F)ccc1-c1cncc(OC2SCC(O)C(O)C2O)c1 (stereo not given)
57 | 135 to 137 | N#Cc1cc(C#N)cc(OC(C(=O)C2CC2)C(=O)C2CC2)c1
58 | 131 to 133 | CC(C)c1cc(C(C)C)c(S(=O)(=O)n2ccc3ccccc32)c(C(C)C)c1
59 | 145 to 147 | CC(C)(C)OC(=O)N1CCNC(=O)C1Cc1ccc(OCc2ccccc2)cc1 (stereo not given)
60 | 91 to 100 | CN(C)CC/C=C1/c2cc(Br)ccc2COc2ccccc21
61 | 144 to 145 | O=C1CC(c2ccccc2)CC(=O)C1C(=O)c1ccc(Cl)cc1[N+](=O)[O-] (stereo not given)
62 | > 300 | CCOC(=O)C(=O)Nc1cc(NC(C)=O)ccc1O
63 | 245 to 246 | CCCNC(=O)c1cccc(-c2cc(-c3ccccc3O)nc(NC(=O)c3cccs3)c2C#N)c1
64 | 91 to 93 | COc1ccc(OC)c(C(=O)C#CC(=O)O)c1
65 | 142 to 144 | CCOc1nc2cc(C)nn2c2c1cnc1c2cnn1CC
66 | 127 to 130 | COC(=O)CCc1cc2cc(F)c(Cl)cc2n1S(=O)(=O)c1ccccc1
67 | 109 to 110 | CCOP(=O)(/C=C/c1cn(-c2ccccc2)nc1OCc1ccc(OCc2nc(-c3ccccc3)oc2C)cc1)OCC
68 | 123 to 125 | COC(=O)CC(=O)/C=C/c1c(-c2ccc(F)cc2)n(C(C)C)c(=O)c2ccccc12
69 | 151 to 154 | CNN1CSC(=Cc2cc(C(C)(C)C)c(O)c(C(C)(C)C)c2)C1=O
70 | 200 to 201 | COc1cc(O)c2c(c1O)CC(C)=C(C)C2
71 | 133 to 135 | Nc1ccc(OC(F)(F)F)c(-c2nc3ccccc3o2)c1
72 | 77 to 78.4 | COc1ccc(CC(=O)c2cccs2)cc1

Row | Structure (SMILES) | melting point [°C]
73 | CCC1(C)SC(=NOC(=O)NC)N=C1C (stereo not given) | 115 to 117
74 | CC(c1ccccc1)C1(OC(=O)C(C)(C)C)C(=O)NC(=O)NC1=O (stereo not given) | 205 to 207
75 | Cc1ccc(S(=O)(=O)N2CC2CCOS(C)(=O)=O)cc1 (stereo not given) | 78 to 80
